Results as given in US7709504B2, “Use of Substituted 2-thio-3,5-dicyano-4-phenyl-6-aminopyridines in the treatment of nausea and vomiting” (Bayer Schering Pharma Aktiengesellschaft, priority 2004, dated 2010).

System: ferrets
Assay: Emetine-induced retching tests on ferrets
Format: in vivo
Settings: for antiemetic effect: test substance 0.3 and 3.0 mg/kg p.o. 60 min before emetine
Experimental: Emetine-Induced Retching Tests on Ferrets:
The determination of the antiemetic action follows the method described by Gardner et al. in Brit. J. Pharmacol., 116, 3158-3163, 1995.
Sixty minutes before administration of the test substance, the ferrets were accommodated in individual stainless steel cages (40×50×34 cm) having a grid floor. The animals were then treated with emetine (2 mg/kg p.o.) and observed immediately for a period of 2 hours with a view to the following points: • number of ferrets which show signs of retching and vomiting; • latency up to initial retching (hours, minutes, seconds); • latency up to initial vomiting (hours, minutes, seconds); • retching (how often); • vomiting (how often); • number of nauseas; • average duration of the vomiting periods (minutes, seconds); • serious side effects on behavior.
Retching is defined according to the invention as a rhythmical respiratory movement against closed vocal cords, while vomiting is defined according to the invention as a forced expulsion of the higher stomach and intestinal contents.
32 ferrets were investigated. The substance tested was administered in two doses, orally sixty minutes before emetine administration, and compared to a control group. Ondansetrone (16 mg/kg p.o.) was given under the same experimental conditions and served as a reference substance.
The 32 ferrets were employed repeatedly in order to investigate 4 test substances. The administration scheme for the three-week experiment looked as follows:
The amounts were analyzed and the student's test was used in the comparison of the treated groups with the control group.
The […] data were analyzed, Fisher's exact probability test being used for the comparison of the treated groups with the control group.

[1] = ferrets given emetine 2 mg/kg p.o., vs control group
[2] = 16 mg/kg p.o., ferrets, emetine 2 mg/kg p.o., 2 h observation

N#Cc1c(NCCO)nc(SCc2ccccc2)c(C#N)c1-c1ccccc1 [Substance 1]
antiemetic effect [1]: no significant antiemetic effect

COCCOc1ccc(-c2c(C#N)c(N)nc(SCc3cccnc3)c2C#N)cc1 [Substance 2]
antiemetic effect [1]: no significant antiemetic effect

CC(=O)Nc1ccc(-c2c(C#N)c(N)nc(SCc3ccccn3)c2C#N)cc1 [Substance 3]
prevention of emetine-induced vomiting (ferrets given emetine 2 mg/kg p.o., test substance in two doses orally 60 min before emetine, vs control group): significantly prevented

Cc1nccn1CC1CCc2c(c3ccccc3n2C)C1=O (centres unmarked) [ondansetrone, Ondansetrone, reference compound]
number of ferrets in which emesis was induced [2]: one of 16 | quantitative occurrence of retching and vomiting (induced by emetine) [2]: significantly reduced
